Our source for the RP-LC retention time values is the METLIN SMRT retention time set (Domingo-Almenara et al. 2019).

The nature of this data set: gradient 5% acetonitrile 3 min, to 50% in 2 min, to 85% in 15 min, held 3 min, 100 µL/min. As to conditions: column: Zorbax Extend-C18 2.1 x 50 mm; eluents: water / acetonitrile, 0.1% formic acid. The procedure, abridged:
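The system's dead and dwell volumes were 40 μL and 900 μL, with a Zorbax Extend-C18 column (2.1 × 50 mm, 1.8 μm) run at 100 μL/min in water and acetonitrile containing 0.1% formic acid each. Pure standards were analyzed in mixtures of ~100 molecules by HPLC–quadrupole time-of-flight mass spectrometry in positive and negative ionization mode. Retention time was assigned from computationally picked, manually inspected adduct peaks.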
For the compound `Cc1nn(C)c(C)c1S(=O)(=O)N1CCC2(CC1)c1[nH]c3ccccc3c1CCN2C`, the RP-LC retention time was 668 s.
As for `O=C(C1CCN(c2nc3ccc(-c4ccccc4)nc3s2)CC1)N1CCOCC1`, the figure is 810 s.
Turning to `CCC(C)NC(=O)N1CC(Oc2ccccc2-c2nc(-c3ccccc3)no2)C1` (stereo not given), the RP-LC retention time amounted to 999 s.
As for `Cn1nnnc1SCC(=O)N1CCC(C(=O)NCC(F)(F)F)CC1`, the figure is 600 s; as for `COC(=O)c1cccc(NC(=O)c2cnc3c(c2)c(=O)n(C)c(=O)n3-c2ccccc2)c1`, 874 s.
`O=C(NC1CC1)c1cc(-c2ccc(F)cc2)n[nH]1`: the RP-LC retention time amounted to 705 s.
Take `CCc1ccc(S(=O)(=O)N2CCC(C)(C(=O)NCc3ccccc3C)CC2)cc1`: the RP-LC retention time was found to be 1020 s.
As for `O=C(NC(c1nnc(-c2ccccc2)o1)c1ccccc1F)c1ccco1` (stereo not given), the figure is 851 s; as for `COc1cccc(-c2noc(Cn3cnc4c(nnn4-c4ccccc4OC)c3=O)n2)c1`, 914 s; as for `CC1=CN2C(c3cccc([N+](=O)[O-])c3)=NON(c3ccc(C)cn3)C2C=C1` (stereo not given), 1190 s.
In the case of `CC1CN(C(=O)c2cccc3c2-c2ccccc2C3=O)CC(C)O1` (stereo not given), the RP-LC retention time stood at 754 s.
Regarding `CCN1C(=O)C(C)(C(=O)NCc2ccccc2)Oc2cccnc21` (stereo not given), the RP-LC retention time came to 812 s.
`CCOC(=O)c1nc(NCc2ccccc2OC)c2c(CC)noc2n1` returned an RP-LC retention time of 943 s.
In the case of `CCN(CC)c1nc2ccsc2c(=O)n1CCC(=O)N1CCN(c2ccccc2)CC1` it was 919 s.
On to `CCCn1nc2n(c1=O)CCN(Cc1cn[nH]c1-c1ccc(OCC)c(Cl)c1)C2`, for which the RP-LC retention time came out at 708 s.
With `COc1cccc(S(=O)(=O)N2CCC(c3noc(-c4cnccn4)n3)C2)c1` (stereo not given), the RP-LC retention time turned out to be 788 s.
For the compound `CCn1cnc2ccc(-c3noc(-c4cccc(Cl)c4)n3)cc21`, the RP-LC retention time amounted to 861 s.
As for `Cc1nc(-c2ccccc2)sc1CC(=O)NCCC1=CCCCC1`, the figure is 947 s.
In the case of `CCc1sc(NC(=O)Cc2c(F)cccc2Cl)nc1-c1ccccc1` it was 1150 s.
`Cc1ccc(Oc2nccnc2N2CCCC(C(=O)Nc3ccc(N4CCOCC4)cc3)C2)cc1` (stereo not given) displayed an RP-LC retention time of 956 s.
Turning to `N#Cc1cccc(-c2cn3c(n2)N(C(=O)c2cccs2)CCC3)c1`, the RP-LC retention time came out at 684 s.
In the case of `CCC1CCCCN1C(=O)c1cnc2nc(C)ccc2c1Nc1ccc(C)c(F)c1` (stereo not given) it was 716 s.
As to `COCCN1C(=O)CCc2cc(NC(=O)c3ccco3)ccc21`, the RP-LC retention time turned out to be 654 s.
Turning to `CC(C)NC(=O)N1CCCC1c1nc(-c2cccc(Cl)c2)no1` (stereo not given), the RP-LC retention time was 906 s.
In turn, `COc1cc(NC(=O)c2noc3c2CC(C)CC3)cc(OC)c1OC` (stereo not given) came in with an RP-LC retention time of 932 s.
In the case of `COc1ccc(CNC(=O)CN2CCc3[nH]c4c(C)cc(C)cc4c(=O)c3C2)cc1` it was 629 s; in that of `Cc1ccc(S(=O)(=O)c2cnc(N3CCN(c4cccc(Cl)c4)CC3)nc2N)cc1C`, 1260 s; in that of `COc1ccc(Cl)cc1S(=O)(=O)N1C[C@@H](F)C[C@H]1C(=O)N1CCCCC1`, 785 s.
In the case of `CCc1nnc(-c2ccc(S(=O)(=O)NC3CCCC3)o2)o1` it was 815 s; in that of `COc1cc(CCC(=O)Nc2c(C(=O)N3CCN(c4ccccn4)CC3)oc3ccccc23)on1`, 642 s.
`CCC(C)NC(=O)NCCC1CCN(S(=O)(=O)c2ccc(F)cc2)CC1` (stereo not given) came in with an RP-LC retention time of 814 s.
In the case of `Cc1cc(NC(=O)c2nc(C(C)C)oc2C)ccc1F` it was 1140 s; in that of `Cc1nc2cc(N3CC(C(=O)NCc4ccc(Br)cc4)CC3=O)ccc2o1` (stereo not given), 761 s; in that of `CCn1c(=O)c(N2CCN(C(=O)c3cccs3)CC2)nc2cccnc21`, 900 s.
In the case of `COc1ccc(-c2cc(C(=O)NCC(c3ccc(C)o3)N(C)C)no2)cc1` (stereo not given) it was 684 s; in that of `Cc1ccc(CNC(=O)C2(CCO)CCN(Cc3ccccc3)C2)o1` (stereo not given), 656 s; in that of `Cc1cc(Cl)ccc1S(=O)(=O)N1CCC2(CCC(CN3CCN(C)CC3)O2)CC1` (stereo not given), 642 s.
`COc1ccc(OC)c(S(=O)(=O)N2CCC(n3cnc4ccc(C)cc4c3=O)CC2)c1`: the RP-LC retention time amounted to 881 s.
As for `Cc1ccccc1-c1nnc(CSc2nnc(NC(=O)c3cccc(F)c3)s2)o1`, the figure is 976 s; as for `CCc1noc(NC(C)=O)c1-c1ccc(C)c(S(=O)(=O)NCc2ccccc2Cl)c1`, 914 s.
As for `O=c1cccnn1CCNS(=O)(=O)c1ccc(OC(F)(F)F)cc1`, the figure is 711 s; as for `O=C(NCC1CCCO1)c1cn(-c2ccc(NC(=O)C3CC3)cn2)cn1` (stereo not given), 633 s.
As for `CC(=O)N1CCc2cc(-c3ccc(C(=O)NC4CCS(=O)(=O)C4)cc3)ccc21` (stereo not given), the figure is 676 s.
As to `COc1ccc(C(CNC(=O)c2cc(=O)c3cc(Cl)ccc3o2)N(C)C)cc1` (stereo not given), the RP-LC retention time was 650 s.
In the case of `Cc1cccc(C)c1NC(=O)C1CCN(S(C)(=O)=O)c2cc(Cl)ccc2O1` (stereo not given) it was 919 s; in that of `COc1ccc(CNC(=O)CN2CCN(Cc3ccccc3)C(=O)C2=O)cc1`, 684 s.
In the case of `O=C(c1sc2cccc(F)c2c1Cl)N1CCN(c2ncccn2)CC1` it was 893 s; in that of `O=C(Nc1cccc(Br)c1)N1CCc2nc(-c3ccccc3)ncc2C1`, 1030 s.
On to `COC(=O)c1ccc(CSc2ncnc3c2cnn3-c2ccc(C)cc2C)o1`, for which the RP-LC retention time amounted to 1070 s.
As for `O=C(c1c(-c2ccccc2)nnc2ccccc12)N1CCN(c2ccccn2)CC1`, the RP-LC retention time was 605 s.
As for `CC1CCC(NC(=O)c2cn(-c3ccc(NC(=O)C4CC4)cn3)cn2)CC1` (stereo not given), the figure is 790 s.
In the case of `CCn1cc(-c2nc(C)c(C(=O)NCc3ccccc3)s2)c2cccnc21` it was 784 s.
In turn, `CCC(C)NC(=O)C1CCN(Cc2c(C)n(CC)c3ccccc23)CC1` (stereo not given) had an RP-LC retention time of 667 s.
In the case of `CCOc1ncccc1CNC(=O)c1sccc1C` it was 822 s; in that of `N#Cc1ccc(C(=O)OCc2nc3ccccc3s2)cc1`, 936 s; in that of `CCC(=O)NCc1nc2c(n1C)CN(S(=O)(=O)c1ccc(CC)cc1)CC2`, 581 s.
`CCCNc1cc(N2CCC(CCC(=O)NCc3ccccc3OC)CC2)ncn1` displayed an RP-LC retention time of 684 s.
In the case of `Cc1ccc(Sc2nccnc2N2CCCC(C(=O)NCC3CCCO3)C2)cc1` (stereo not given) it was 917 s.
On to `COc1ccc(C(=O)Nc2nc(-c3ccc([N+](=O)[O-])cc3)cs2)cc1OC`, for which the RP-LC retention time stood at 1010 s.
For `O=C(c1ccoc1)N1CCCC(c2nc(-c3ccc(F)cc3)n[nH]2)C1` (stereo not given), the RP-LC retention time stood at 710 s.
